# Like-named read-outs stand apart in the source and are kept apart here. Where a SMILES comes first, the peptide text is derived from it. The star is where a group is joined. Cbz = O=C(OCc1ccccc1)*
# Columns and labels:
# T. cruzi = details: cited from earlier work
# [1] = test system: epimastigote forms of Y strain (TcII); assay: Epimastigote cell viability assay (MTS/PMS), Y strain; assay type: cell-based, Trypanosoma cruzi; details: for IC50: Trypanosoma cruzi, 4 h of treatment, read-out: IC50 epimastigotes strain Y
# Description: (§1) Epimastigote forms of three strains of T. cruzi, including Dm28c (TcI), CL Brener (TcVI), and Y strain (TcII), were maintained in liver infusion tryptose (LIT) medium supplemented with 10% fetal bovine serum at 28°C [16] were kindly provided by Oswaldo Cruz Institute/Fiocruz. For the experiments, exponential phase cultures were used. All assays were performed in triplicates in 96-well plates.
# (§2) The absorbance of the formazan was measured at 490 nm using a microplate reader (Asys Expert Plus -Biochrom). In parallel, we determined the effect of 1% DMSO (negative control) and benznidazole (positive control) on the viability of epimastigotes and a replicate of each treatment was performed by fixing the epimastigotes with 4% paraformaldehyde prior to the addition of MTS/PMS (basal absorbance control).
# (§3) The 50% cytotoxic concentration (CC50), x % inhibitory concentration (ICx = IC25, IC50, IC75, or IC90), and 50% lethal concentration (LC50) values were obtained from the percentage of inhibition/death versus log concentration of each compound, by nonlinear regression with variable slope and automatic withdrawal of outliers with ROUT coefficient (Q = 5). […] Graphpad Prism software version 7.04 was used for all regressions.
# Cytotoxicity assay (MTT) = assay type: cell-based; details: African green monkey (Cercopithecus aethiops), Vero cells (CCL-81); for CC50 at 4 h: 4 h of treatment, read-out: Vero cells (CCL-81) CC50 - 4h (CI); for CC50 at 24 h: 24 hours of treatment, confidence interval in brackets, read-out: Vero cells (CCL-81) CC50 (CI)
# Description: Vero cells (CCL-81) isolated from the kidney of the African green monkey Cercopithecus aethiops were purchased from ATCC® (Washington DC, USA). The cells were inoculated in 200 μL of Dulbecco’s modified Eagle (DMEM) medium in 96-well plates at a concentration of 2 × 10^4 cells/well and incubated at 37°C for 24 h for adherence of the cells. Six different concentrations of the compounds (12 to 900 μM for butanolides, and 200 to 1,600 μM for benznidazole) were added to the wells. After 4 or 24 h of treatment, the cells were washed and cell viability was assessed using MTT (3-(4,5-Dimethylthiazol-2-yl)-2,5-Diphenyltetrazolium Bromide) assay (2 mg/mL). After 4 h of incubation at 37°C in a CO2 atmosphere, the wells were washed and 100% DMSO was added to solubilize the formazan crystals. The absorbance was measured at 570 nm using an ELISA plate reader (Biotek Model EL-800, VT, USA). DMSO (1%) treatment served as negative control and benznidazole treatment served as positive control.
# as §3
# [2] = test system: amastigotes of T. cruzi (Dm28c); assay: Antiproliferative assay on intracellular amastigotes in Vero host cells; assay type: cell-based, Trypanosoma cruzi; details: for IC50: Trypanosoma cruzi, Vero, 24 hours of treatment, confidence interval in brackets, read-out: Amastigotes (Dm28c) IC50 (CI)
# Description: To determine the antiproliferative effect of butanolides on intracellular amastigote forms (Dm28c), Vero cells were used as host cells. Vero cells were cultured in DMEM and maintained in a CO2 atmosphere at 37°C.
# After 4 h of incubation for adherence and infection, the cells were washed with 1x phosphate buffered saline (PBS) and then incubated in DMEM for 20 h to allow differentiation of internalized trypomastigotes into amastigotes.
# Vero cells infected with amastigotes were incubated for 4 or 24 h with the compounds (4 concentrations within the range 4–200 μM) in DMEM. After incubation, the cells were washed, fixed in methanol, stained with 4',6-Diamidino-2-phenylindole (DAPI), and photographed using Leica DMI 6000-B fluorescence microscope. The photos obtained were analyzed using the software ImageJ version 1.5 for quantification of total Vero cells and determination of the percentage of infected cells and number of amastigotes per cell. The 50% inhibitory concentration (IC50) was calculated using the infectivity index (II) described by Ceole et al.. DMSO (1%) treatment served as negative control and benznidazole treatment served as positive control.
# as §3
# [3] = test system: epimastigote forms of CL Brener (TcVI); assay: Epimastigote cell viability assay (MTS/PMS), CL Brener; assay type: cell-based, Trypanosoma cruzi; details: for IC50: Trypanosoma cruzi, 4 h of treatment, read-out: IC50 epimastigotes strain CL Brener
# Description: as §1, §2, §3
# [4] = test system: epimastigotes of T. cruzi (Dm28c, TcI); assay: Epimastigote cell viability assay (MTS/PMS), Dm28c; assay type: cell-based, Trypanosoma cruzi; details: for IC50: Trypanosoma cruzi, read-out: Epimastigotes (Dm28c) IC50 - 4h (CI); for activity at concentrations below 50 μg/mL in epimastigotes: 72 h of treatment, Dm28c; for SI (selectivity index): Vero CC50 4 h versus epimastigote Dm28c IC50 4 h
# Description: as §1
# The effect of the isolated compounds on the viability of epimastigote forms of Dm28c strain was determined by MTS [3-(4,5-dimethylthiazol-2-yl)-5-(3-carboxymethoxyphenyl)-2-(4-sulfophenyl)-2H-tetrazolium bromide] with PMS (5-methyl-phenazinium methyl sulfate) colorimetric assay, as described by Nunes et al.. […]
# as §2, §3
# [5] = test system: epimastigotes of T. cruzi (Dm28c, TcI); set-up: method as in PMID 32327956; details: 24 h of treatment; read-out: IC50 epimastigote forms of Dm28c strain; cited from earlier work
# [6] = test system: trypomastigotes infecting Vero cells; assay: Infectivity assay (treatment before or during infection of Vero cells); assay type: cell-based, Trypanosoma cruzi
# Description: The trypomastigotes were treated with isoobtusilactone A (LC50/4 h of trypomastigotes) for 4 h, while the control trypomastigotes were incubated with drug-free medium for 4 h. These trypomastigotes were then seeded into 96-well plates (4 × 10^4 parasites per well) with already adhered Vero cells at a ratio of 10 parasites per host cell.
# After 20 h of infection, the infected Vero cell culture with intracellular amastigotes was fixed, stained with DAPI, photographed, and analyzed as described for antiproliferative assay.
# Already adhered Vero cells were incubated with recently collected trypomastigotes for 4 h in a medium containing isoobtusilactone A (LC50/4 h of amastigotes) or in a drug-free medium (negative control). After 4 h, the host cells were washed and drug-free fresh medium was added. The cells were incubated for another 20 h and then fixed, stained, photographed, and analyzed as described above.
# Hep G2 cells = test system: Hep G2 cells; set-up: method as in PMID 22400995, PMID 18489163, PMID 17321026; details: cited from earlier work
# [7] = test system: amastigotes of T. cruzi (Dm28c); set-up: method as in PMID 32327956; details: 24 h of treatment; cited from earlier work
# [8] = test system: trypomastigote forms of the parasite (Dm28c); assay: microbe, parasite or virus in culture; assay type: cell-based; details: for LC50: Trypanosoma cruzi, 4 h of treatment, read-out: LC50 against trypomastigote forms (Dm28c); for SI (selectivity index): trypomastigotes Dm28c, 4 h, Vero cells
# Description: Cell-derived trypomastigotes (Dm28c) were obtained from the supernatant of infected Vero cell cultures. Vero cells (9 × 10^5 cells/mL) and trypomastigotes were seeded at a ratio of 1:10 into culture bottles (75 cm^2) containing DMEM. After 4 h of incubation, the bottles were washed to remove unadhered trypomastigotes and incubated for another 96 h under CO2 atmosphere at 37°C. After 96 h of incubation, new trypomastigote forms were collected from the supernatant and used to perform the assays.
# The lysis assay was performed in 96-well plates in technical triplicates (4 concentrations within the range 4–250 μM for butanolides and 200–1,600 μM for benznidazole), and the trypomastigotes (1 x 10^6 parasites/well) were incubated in 200 μL of DMEM (supplemented with 10% FBS, 100 μg/mL streptomycin, and 100 IU/mL penicillin) with the compounds at 37°C for 4 h. The test, negative control (1% DMSO), and positive control (benznidazole) parasites were fixed and counted in Neubauer's chamber.
# as §3
# [9] = test system: amastigotes and trypomastigotes; assay: Ultrastructural analysis by transmission and scanning electron microscopy; assay type: cell-based, Trypanosoma cruzi
# Description: Trypomastigotes were incubated with isoobtusilactone A (LC50/4 h of trypomastigote) for 2 h. The parasites were washed with cacodylate buffer (0.1 M) and fixed in cacodylate buffer (0.1 M) containing paraformaldehyde (4%) and glutaraldehyde (2.5%). The cells were then adhered to glass cover slips previously coated with poly-L-lysine, postfixed with osmium tetroxide (1%), dehydrated with graded ethanol series, and dried using a critical point dryer (Leica CPD 300). Finally, the samples were coated with a layer of gold in a sputtering device (Leica EM ACE 200).
# The cells were fixed, dehydrated, and dried following the same procedure described above. Cell membrane of the host cells was randomly removed with the aid of an adhesive tape and the resulting samples were coated with a layer of gold in a sputtering device (Leica EM ACE 200).
# Trypomastigotes were treated following the same procedure as described for scanning microscopy. After treatment, the cells were washed with cacodylate buffer (0.1 M) and fixed in cacodylate buffer (0.1 M) containing paraformaldehyde (4%) and glutaraldehyde (2.5%).
# All samples were postfixed in osmium tetroxide (1%), dehydrated with acetone series, and embedded in EMbed 812® resin. […]
# Vero cells (CCL-81) = test system: Vero cells (CCL-81); set-up: method as in Nunes et al., 2020; details: 24 hours of treatment; confidence interval in brackets; ref Nunes et al., 2020; read-out: Vero cells (CCL-81) CC50 (CI); cited from earlier work
# [10] = test system: epimastigote forms of strain Dm28c; assay: Inhibition of metacyclogenesis; assay type: cell-based; details: Trypanosoma cruzi, 2 h exposure, then 72 h in drug-free medium, p = 0.009, read-out: less trypomastigotes than control (inhibition of metacyclogenesis)
# Description: After the stress, the cells were washed and incubated with TAU drug-free supplemented with 10 mM L-proline, 50 mM L-sodium glutamate, 2 mM L-sodium aspartate and 10 mM D-glucose (TAU3AAG medium) for 72 h. The total number of differentiated trypomastigotes was counted in Neubauer's chamber to assess the inhibition percentage.
# trypomastigotes [11] = details: period of treatment 24 h; read-out: IC50 against trypomastigotes; cited from earlier work
# amastigote forms = details: longer treatment periods; read-out: activity against amastigote forms; cited from earlier work
# trypomastigotes [12] = details: concentration greater than 40 μM, exposure time of 18 hours; cited from earlier work
# [13] = Vero CC50 versus amastigote IC50, 24 hours
# [14] = 4 h of treatment, Na = not active
# [15] = treatment simultaneous to the infection, LC50/4 h of amastigote (20.75 μM)
# [16] = trypomastigotes treated before infection, LC50/4 h of trypomastigote
compound,measurement,setting,value
CC(C)=CCCC(C)=CC=O (mixture of isomers) [Citral],inhibition of metacyclogenesis,T. cruzi; 30 μg/mL,54%
"O=C(Cn1ccnc1[N+](=O)[O-])NCc1ccccc1 [Benznidazole, benznidazole, reference compound]",IC50,[1],> 1600 µM
same,CC50 at 4 h,Cytotoxicity assay (MTT),> 1600 µM
same,CC50 at 24 h,Cytotoxicity assay (MTT),1140 µM
same,IC50,[2],6.57 µM
same,SI (selectivity index),[2]; [13],174
same,IC50,[3],> 1600 µM
same,IC50,[4]; [14],> 1600 µM
"CCCCCCCCCCCCC/C=C1\C(=O)O[C@@H](C)[C@H]1O [Epilitsenolide C1, epilitsenolide C1]",IC50,[5],7.77 µM
same,Epimastigotes (Dm28c) IC50 - 4h (CI),[4]; [14],did not show activity
same,activity at concentrations below 50 μg/mL in epimastigotes,[4],exhibited activity
"C=C1OC(=O)/C(=C/CCCCCCCCCCCCC)[C@@H]1O [Isoobtusilactone A, isoobtusilactone A]",reduction in the number of amastigotes per cell,[6]; [15],65%
same,reduction in the number of infected cells,[6]; [15],43%
same,reduction in the number of amastigotes per cell,[6]; [16],~40%
same,reduction in the number of infected cells,[6]; [16],20%
same,IC50,[1],32.3 µM
same,SI (selectivity index),"[1]; epimastigotes strain Y, 4 h, Vero cells",11.4
same,effect on tumor cells,Hep G2 cells,inducing apoptosis
same,inhibition of growth of amastigote forms,[7],more than 70%
same,LC50,[8],30.1 µM
same,SI (selectivity index),[8],12.34
same,CC50 at 4 h,Cytotoxicity assay (MTT),371 µM
same,IC50,[2],23 µM
same,SI (selectivity index),[2]; [13],6.81
same,SI (selectivity index),"[2]; amastigotes, 4 h, Vero cells",17.88
same,ultrastructure of treated intracellular amastigotes (TEM),"[9]; LC50/4 h of amastigotes, 4 h",strong and acute damage to the unique mitochondria
same,ultrastructure of treated trypomastigotes (TEM),"[9]; LC50/4 h of trypomastigote, 2 h",swelling and loss of internal content of mitochondria
same,CC50,Vero cells (CCL-81),156 µM
same,IC50,[3],61.7 µM
same,SI (selectivity index),"[3]; epimastigotes strain CL Brener, 4 h, Vero cells",6.0
same,activity at concentrations below 50 μg/mL in epimastigotes,[4],exhibited activity
same,IC50,[4]; [14],10.1 µM
same,SI (selectivity index),[4],36.7
same,inhibition at 2.75 µM,[10],43%
CC(C)[C@H](NC(=O)OCc1ccccc1)C(=O)N[C@H](C=O)Cc1ccccc1 [MDL28170] (Cbz-Val-Phe-aldehyde),inhibition of differentiation,"T. cruzi; 50 μM, 96-hour treatment",~50%
"CCCCCCCCCCCCC/C=C1\CC(CO)OC1=O (stereo not drawn) [Majoranolide, majoranolide]",LC50,[8],71.7 µM
same,SI (selectivity index),[8],7.77
same,CC50 at 4 h,Cytotoxicity assay (MTT),558 µM
same,CC50 at 24 h,Cytotoxicity assay (MTT),166 µM
same,IC50,[2],21.9 µM
same,SI (selectivity index),[2]; [13],7.57
same,activity at concentrations below 50 μg/mL in epimastigotes,[4],exhibited activity
same,IC50,[4]; [14],> 250 µM
same,SI (selectivity index),[4],0.94
C=C1OC(=O)/C(=C\CCCCCCCCCCCCCCC)[C@H]1O [isolinderanolide E],IC50,trypomastigotes [11],29.9 µM
same,IC50,amastigote forms,10.1 µM
Oc1ccc(/C=C/c2cc(O)cc(O)c2)cc1 [resveratrol],reduction of infection,trypomastigotes [12],by half
CCCCCCCCCCCCCCC/C=C(/C(=O)OC)[C@H](O)C(C)=O [secosubamolide A],IC50,trypomastigotes [11],12.5 µM
same,IC50,amastigote forms,12.3 µM
isolinderanolide D,IC50,trypomastigotes [11],12.9 µM
same,IC50,amastigote forms,25.3 µM
